From PMC9751974 (Frontiers in Microbiology, 2022)
≈ marks a conversion by molar mass, not a printed value. Read-outs that look alike come from different tables or passages of the source. Blank lines part the entries; values can stand above or below the compound they belong to. Where a SMILES comes first, the peptide text is derived from it. [ ]: non-standard residue; d: D form.

What was measured:
pepsin and trypsin = assay: Protease stability, pepsin and trypsin stated together
Procedure: The untreated peptides and buffer solution were used as control. […] All assays were carried out in triplicate.

[1] = test system: healthy mouse red blood cells; conditions: cited from earlier work; for hemolysis rate: reported in previous research, ref Zhou et al., 2021
From the text: Escherichia coli (E. coli) infection and LPS-induced inflammation are still of severe threat to human health. With the increasing problem of antibiotic resistance, there is a desperate need to develop new approaches to solve the problem.

E. coli ATCC25922 [2] = test system: E. coli ATCC25922
Procedure: The MIC values of peptides against E. coli ATCC25922 were determined by the microtiter broth dilution method. The bacteria were grown to the mid-logarithmic phase and diluted into the Luria-Bertani (LB) broth at 1 × 10^5 CFU/mL. […] Polymyxin and the sterile aqua distillate were tested as control. All assays were performed in triplicate.

[3] = test system: murine RAW264.7 macrophage cells
Procedure: The performance of the Cell Counting Kit-8 (CCK-8) assay was applied to investigate the effect of peptides on the viability of murine RAW264.7 macrophage cells and Vero cells in accordance with the previous method ([Zhou et al., 2021]). Cells (2.5 × 10^4 cells/well) were added into 96-well plates and incubated at 37°C in a humidified 5% CO2 environment for 24 h. Then various concentrations (0.15–20 μg/mL) of peptides were mixed with cells. Sterile aqua distillate was used as control. Eventually, 10 μL WST-8 solutions were added into each well. After 4 h of incubation at 37°C, a microplate reader was applied to measure the absorbance of each sample at 460 nm. The following formula was used to calculate cell viability: Cell viability (%) = OD 460 nm of treated sample/OD 460 nm of control × 100%.

pepsin = pepsin (Sus scrofa, UniProt P00791); assay: Protease stability (MIC after incubation with pepsin); assay type: in vitro ADME; conditions: pepsin 3,000 U/mg, pH 2.0, 4 h, 37°C; peptide:protease 10:1 w/w (320 and 32 μg/mL); read-out MIC; triplicate
pepsin, sequence (P00791 60-385): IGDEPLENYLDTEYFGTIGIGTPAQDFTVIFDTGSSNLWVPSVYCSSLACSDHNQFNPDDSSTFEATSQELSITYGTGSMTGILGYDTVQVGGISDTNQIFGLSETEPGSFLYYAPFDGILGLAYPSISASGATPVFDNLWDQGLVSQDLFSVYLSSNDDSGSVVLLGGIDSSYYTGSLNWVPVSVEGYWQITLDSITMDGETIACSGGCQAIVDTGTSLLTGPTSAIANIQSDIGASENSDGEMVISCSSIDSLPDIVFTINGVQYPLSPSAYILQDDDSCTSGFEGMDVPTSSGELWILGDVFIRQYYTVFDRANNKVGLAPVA
Procedure: All assays were carried out in triplicate.

[4] = test system: RAW264.7 cells and Vero cells; assay: Cytotoxicity, CCK-8 assay, RAW264.7 and Vero stated together; conditions: 128 μg/mL; range over Figures 1D,E (RAW264.7 and Vero)
Procedure: Cells (2.5 × 10^4 cells/well) were added into 96-well plates and incubated at 37°C in a humidified 5% CO2 environment for 24 h. […] Sterile aqua distillate was used as control. Eventually, 10 μL WST-8 solutions were added into each well. After 4 h of incubation at 37°C, a microplate reader was applied to measure the absorbance of each sample at 460 nm. The following formula was used to calculate cell viability: Cell viability (%) = OD 460 nm of treated sample/OD 460 nm of control × 100%.

[5] = test system: healthy mouse red blood cells; assay: Hemolysis; conditions: mouse red blood cells 8% v/v, PBS pH 7.4, 37°C, 1 h, OD540, three replicates
Procedure: Hemolytic activity was estimated by determining hemoglobin released from healthy mouse red blood cells. Blood cells were washed three times in sterile PBS (10 mM, pH 7.4) and centrifuged at 1500 rpm for 5 min at 4°C. […] Afterward, the mixtures were incubated at 37°C for 1 h and centrifuged at 1500 rpm for 5 min. Ultimately, the absorbance of supernatants was measured at 540 nm. PBS and 0.1% Triton X-100 were used as the negative and the positive control, respectively. Hemolysis (%) = [(OD540 nm of the treated sample-OD540 nm of the negative control)/ (OD540 nm of positive control-OD540 nm of negative control)] × 100%.

[6] = ref Zhou et al., 2021; cited from earlier work
From the text: As essential components of innate immunity, antimicrobial peptides (AMPs) contribute to the first line of defense against infections. […] However, its ant ...

[7] = test system: murine RAW264.7 macrophage cells; conditions: 128 μg/mL; cell line not given; ref Zhou et al., 2021; cited from earlier work
Procedure: The toxicity of peptides to mouse eukaryotic cells, macrophagocyte RAW 264.7 and Vero cells was determined.

E. coli ATCC25922 [8] = assay: Development of resistance by serial passaging (MIC assay); assay type: cell-based, Escherichia coli; conditions: 11 serial passages of E. coli ATCC25922, inoculum from 1/4 MIC well, 11 days
Procedure: The development of resistance against E. coli ATCC25922 of these peptides was performed by MIC assay. Mid-log phase of bacteria (1 × 10^5 CFU/mL) (90 μL/well) was added to 10 μL peptides solution (128, 64, 32, 16, 8, 4, 2, 1, 0.5, 0.25 μg/mL). Polymyxin were used as control. After incubation at 37°C for 16–18 h, bacteria form 1/4 MIC well were used to inoculate in fresh culture. The MIC values were continually determined as described above. The serial passaging was repeated for 11 days.

decline of anti-E. coli ability after exposure to pepsin and trypsin (pepsin and trypsin): 4 times
MIC (E. coli ATCC25922 [2]; ATCC25922): 8 µg/mL (≈ 4.25 µM)
Compound: CC(C)C[C@H](NC(=O)[C@H](CCCNC(=N)N)NC(=O)[C@@H](N)C(C)C)C(=O)N[C@@H](CCCNC(=N)N)C(=O)N[C@@H](Cc1c[nH]c2ccccc12)C(=O)N[C@@H](Cc1c[nH]c2ccccc12)C(=O)N[C@@H](CCCNC(=N)N)C(=O)N[C@@H](CCCNC(=N)N)C(=O)N[C@@H](CCCNC(=N)N)C(=O)N[C@@H](Cc1c[nH]c2ccccc12)C(=O)N[C@@H](CCCNC(=N)N)C(=O)N[C@@H](CCCNC(=N)N)C(N)=O [1018M] (H-VRLRWWRRRWRR-NH2)
hemolysis [1]: 0%

decline of anti-E. coli ability after exposure to pepsin and trypsin (pepsin and trypsin): 4 times
increase of resistance against tested proteases (pepsin and trypsin): 2–4 times
safe concentration of murine macrophage cells [3]: 4 times of MIC
MIC (E. coli ATCC25922 [2]; ATCC25922): 4 µg/mL (≈ 2.13 µM)
Compound: CC(C)C[C@@H](NC(=O)[C@@H](CCCNC(=N)N)NC(=O)[C@H](N)C(C)C)C(=O)N[C@H](CCCNC(=N)N)C(=O)N[C@H](Cc1c[nH]c2ccccc12)C(=O)N[C@H](Cc1c[nH]c2ccccc12)C(=O)N[C@H](CCCNC(=N)N)C(=O)N[C@H](CCCNC(=N)N)C(=O)N[C@H](CCCNC(=N)N)C(=O)N[C@H](Cc1c[nH]c2ccccc12)C(=O)N[C@H](CCCNC(=N)N)C(=O)N[C@H](CCCNC(=N)N)C(N)=O [D1018M] (H-[dV][dR][dL][dR][dW][dW][dR][dR][dR][dW][dR][dR]-NH2)

Compound: CC[C@@H](C)[C@@H](NC(=O)[C@@H](CCCNC(=N)N)NC(=O)[C@H](NC(=O)[C@@H](C)NC(=O)[C@H](NC(=O)[C@H](NC(=O)[C@@H](CC(C)C)NC(=O)[C@@H](CCCNC(=N)N)NC(=O)[C@H](N)C(C)C)[C@H](C)CC)C(C)C)C(C)C)C(=O)N[C@H](Cc1c[nH]c2ccccc12)C(=O)N[C@H](CCCNC(=N)N)C(=O)N[C@H](CCCNC(=N)N)C(N)=O [D1018] (H-[dV][dR][dL][dI][dV][dA][dV][dR][dI][dW][dR][dR]-NH2)
MIC against E. coli ATCC25922 after exposure to pepsin (pepsin): 4 µg/mL (≈ 2.6 µM)
increase of resistance against tested proteases (pepsin and trypsin; abstract, D-peptides compared with L-parents): 2–4 times
survival rate [4]: 81.7–87.6%
hemolysis rate ([5]; 32 μg/mL): 0.542%
hemolysis rate ([5]; 64 μg/mL): 1.724%
hemolysis rate ([5]; 128 μg/mL): 2.316%

Compound: CC[C@H](C)[C@H](NC(=O)[C@H](CCCNC(=N)N)NC(=O)[C@@H](NC(=O)[C@H](C)NC(=O)[C@@H](NC(=O)[C@@H](NC(=O)[C@H](CC(C)C)NC(=O)[C@H](CCCNC(=N)N)NC(=O)[C@@H](N)C(C)C)[C@@H](C)CC)C(C)C)C(C)C)C(=O)N[C@@H](Cc1c[nH]c2ccccc12)C(=O)N[C@@H](CCCNC(=N)N)C(=O)N[C@@H](CCCNC(=N)N)C(N)=O [IDR-1018] (H-VRLIVAVRIWRR-NH2)
decline of anti-E. coli ability after exposure to pepsin and trypsin (pepsin and trypsin; 4 h, 37°C, pepsin pH 2.0 and trypsin pH 8.0, 10:1 w/w, read-out MIC vs untreated peptide): 2–4 times
hemolysis rate ([1]; 32 μg/mL): 0.386%
hemolysis rate ([1]; 64 μg/mL): 2.136%
hemolysis rate ([1]; 128 μg/mL): 2.651%
decrease of activity on exposure to inappropriate temperature, pH, or protease environment [6]: 2–16 times
survival rate [7]: 95.9%

Compound: Polymyxin [reference compound]
change of MIC after serial passages (E. coli ATCC25922 [8]): no change in MIC
MIC (E. coli ATCC25922 [2]; E. coli ATCC25922, LB broth, 1 × 10^5 CFU/mL, 37°C, 16–24 h, triplicate): 1.56 µg/mL
